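Interpolation was linear, between the two tested concentrations surrounding the appropriate level; five concentrations were tested over 48 hours in 96-well plates. GI50 = concentration required for 50% inhibition of growth.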 Calls of active or inactive are those of the source. Cut-off read from the data, not from the text of the source: active = GI50 up to about 1.1 µM and inactive = higher.
What was measured:
Experiment in all cases: NCI-60 cell line screen, 48 h
U-251 = system: U-251
MDA-MB-435 = system: MDA-MB-435
MOLT-4 = system: MOLT-4
OVCAR-3 = system: OVCAR-3
HCT-116 = system: HCT-116
CCRF-CEM = system: CCRF-CEM
HOP-62 = system: HOP-62
HT-29 = system: HT-29
M14 = system: M14
SW-620 = system: SW-620
SK-MEL-2 = system: SK-MEL-2
786-0 = system: 786-0
NCI-H522 = system: NCI-H522
DU-145 = system: DU-145
A498 = system: A498
SN12C = system: SN12C
UACC-257 = system: UACC-257
SK-MEL-28 = system: SK-MEL-28
SK-MEL-5 = system: SK-MEL-5
HCT-15 = system: HCT-15
HL-60 = system: HL-60
UACC-62 = system: UACC-62
SF-268 = system: SF-268
MDA-MB-231 = system: MDA-MB-231
COLO 205 = system: COLO 205
K562 = system: K562
SNB-75 = system: SNB-75
SK-OV-3 = system: SK-OV-3
MDA-N = system: MDA-N
ACHN = system: ACHN
CAKI-1 = system: CAKI-1
OVCAR-5 = system: OVCAR-5
SF-295 = system: SF-295
SF-539 = system: SF-539
NCI-H226 = system: NCI-H226
LOX IMVI = system: LOX IMVI
SR = system: SR
Malme-3M = system: Malme-3M
Hs-578T = system: Hs-578T
BT-549 = system: BT-549
NCI/ADR-RES = system: NCI/ADR-RES
NCI-H23 = system: NCI-H23
T47D = system: T47D
UO-31 = system: UO-31
MCF7 = system: MCF7
IGROV-1 = system: IGROV-1
HOP-92 = system: HOP-92
PC-3 = system: PC-3
OVCAR-8 = system: OVCAR-8
OVCAR-4 = system: OVCAR-4
SNB-19 = system: SNB-19
A549 = system: A549
KM12 = system: KM12
TK-10 = system: TK-10
RPMI-8226 = system: RPMI-8226
EKVX = system: EKVX
HCC 2998 = system: HCC 2998
NCI-H460 = system: NCI-H460
RXF 393 = system: RXF 393

Structure (SMILES): Cc1cc(-c2cc(C(C)(C)C)c(O)c(C(C)(C)C)c2)c(C)cc1-c1cc(C(C)(C)C)c(O)c(C(C)(C)C)c1
- GI50 (U-251): > 100 µM (inactive)
- GI50 (MDA-MB-435): 13.6 µM (inactive)
- GI50 (MOLT-4): > 100 µM (inactive)
- GI50 (OVCAR-3): > 100 µM (inactive)
- GI50 (HCT-116): > 100 µM (inactive)
- GI50 (CCRF-CEM): > 100 µM (inactive)
- GI50 (HOP-62): > 100 µM (inactive)
- GI50 (HT-29): > 100 µM (inactive)
- GI50 (M14): > 100 µM (inactive)
- GI50 (SW-620): > 100 µM (inactive)
- GI50 (SK-MEL-2): > 100 µM (inactive)
- GI50 (786-0): > 100 µM (inactive)
- GI50 (NCI-H522): > 100 µM (inactive)
- GI50 (DU-145): > 100 µM (inactive)
- GI50 (A498): 27.3 µM (inactive)
- GI50 (SN12C): > 100 µM (inactive)
- GI50 (UACC-257): > 100 µM (inactive)
- GI50 (SK-MEL-28): > 100 µM (inactive)
- GI50 (SK-MEL-5): > 100 µM (inactive)
- GI50 (HCT-15): > 100 µM
- GI50 (HL-60): > 100 µM (inactive)
- GI50 (UACC-62): > 100 µM (inactive)
- GI50 (SF-268): > 100 µM (inactive)
- GI50 (MDA-MB-231): > 100 µM (inactive)
- GI50 (COLO 205): > 100 µM (inactive)
- GI50 (K562): > 100 µM (inactive)
- GI50 (SNB-75): > 100 µM (inactive)
- GI50 (SK-OV-3): > 100 µM (inactive)
- GI50 (MDA-N): > 100 µM (inactive)
- GI50 (ACHN): > 100 µM (inactive)
- GI50 (CAKI-1): > 100 µM (inactive)
- GI50 (OVCAR-5): > 100 µM (inactive)
- GI50 (SF-295): > 100 µM (inactive)
- GI50 (SF-539): > 100 µM (inactive)
- GI50 (NCI-H226): > 100 µM (inactive)
- GI50 (LOX IMVI): > 100 µM (inactive)
- GI50 (SR): 41.2 µM (inactive)
- GI50 (Malme-3M): > 100 µM (inactive)
- GI50 (Hs-578T): > 100 µM (inactive)
- GI50 (BT-549): > 100 µM (inactive)
- GI50 (NCI/ADR-RES): > 100 µM (inactive)
- GI50 (NCI-H23): > 100 µM (inactive)
- GI50 (T47D): > 100 µM (inactive)
- GI50 (UO-31): > 100 µM (inactive)
- GI50 (MCF7): > 100 µM (inactive)
- GI50 (IGROV-1): > 100 µM (inactive)
- GI50 (HOP-92): 12.1 µM (inactive)
- GI50 (PC-3): > 100 µM (inactive)
- GI50 (OVCAR-8): > 100 µM (inactive)
- GI50 (OVCAR-4): > 100 µM (inactive)
- GI50 (SNB-19): > 100 µM (inactive)
- GI50 (A549): > 100 µM (inactive)
- GI50 (KM12): > 100 µM (inactive)
- GI50 (TK-10): > 100 µM (inactive)
- GI50 (RPMI-8226): > 100 µM (inactive)
- GI50 (EKVX): > 100 µM (inactive)

Structure (SMILES): CN1CCC(O)(C(C)(C)C)CC1
- GI50 (U-251): > 100 µM (inactive)
- GI50 (MDA-MB-435): > 100 µM (inactive)
- GI50 (MOLT-4): > 100 µM (inactive)
- GI50 (OVCAR-3): > 100 µM (inactive)
- GI50 (HCT-116): > 100 µM (inactive)
- GI50 (CCRF-CEM): > 100 µM (inactive)
- GI50 (HOP-62): > 100 µM (inactive)
- GI50 (HCC 2998): > 100 µM (inactive)
- GI50 (HT-29): > 100 µM (inactive)
- GI50 (M14): > 100 µM (inactive)
- GI50 (SW-620): > 100 µM (inactive)
- GI50 (SK-MEL-2): > 100 µM (inactive)
- GI50 (786-0): > 100 µM (inactive)
- GI50 (NCI-H460): > 100 µM (inactive)
- GI50 (DU-145): > 100 µM (inactive)
- GI50 (SN12C): > 100 µM (inactive)
- GI50 (UACC-257): > 100 µM (inactive)
- GI50 (SK-MEL-28): > 100 µM (inactive)
- GI50 (SK-MEL-5): > 100 µM (inactive)
- GI50 (HCT-15): > 100 µM
- GI50 (HL-60): > 100 µM (inactive)
- GI50 (UACC-62): > 100 µM (inactive)
- GI50 (SF-268): > 100 µM (inactive)
- GI50 (MDA-MB-231): > 100 µM (inactive)
- GI50 (COLO 205): > 100 µM (inactive)
- GI50 (K562): > 100 µM (inactive)
- GI50 (SNB-75): > 100 µM (inactive)
- GI50 (SK-OV-3): > 100 µM (inactive)
- GI50 (MDA-N): > 100 µM (inactive)
- GI50 (ACHN): > 100 µM (inactive)
- GI50 (RXF 393): > 100 µM (inactive)
- GI50 (CAKI-1): > 100 µM (inactive)
- GI50 (OVCAR-5): > 100 µM (inactive)
- GI50 (SF-295): > 100 µM (inactive)
- GI50 (NCI-H226): > 100 µM (inactive)
- GI50 (LOX IMVI): > 100 µM (inactive)
- GI50 (SR): > 100 µM (inactive)
- GI50 (Malme-3M): > 100 µM (inactive)
- GI50 (Hs-578T): > 100 µM (inactive)
- GI50 (BT-549): > 100 µM (inactive)
- GI50 (NCI/ADR-RES): > 100 µM (inactive)
- GI50 (NCI-H23): > 100 µM (inactive)
- GI50 (T47D): > 100 µM (inactive)
- GI50 (UO-31): > 100 µM (inactive)
- GI50 (MCF7): > 100 µM (inactive)
- GI50 (IGROV-1): > 100 µM (inactive)
- GI50 (PC-3): > 100 µM (inactive)
- GI50 (OVCAR-8): > 100 µM (inactive)
- GI50 (OVCAR-4): > 100 µM (inactive)
- GI50 (SNB-19): > 100 µM (inactive)
- GI50 (A549): > 100 µM (inactive)
- GI50 (KM12): > 100 µM (inactive)
- GI50 (TK-10): > 100 µM (inactive)
- GI50 (RPMI-8226): > 100 µM (inactive)
- GI50 (EKVX): > 100 µM (inactive)

Structure (SMILES): C[n+]1c(-c2ccc(/C=N\N3CCN(/N=C/c4ccc(-c5cn6ccccc6[n+]5C)cc4)CC3)cc2)cn2ccccc21
- GI50 (U-251): 27.1 µM (inactive)
- GI50 (MDA-MB-435): 34.5 µM (inactive)
- GI50 (MOLT-4): 68.7 µM (inactive)
- GI50 (OVCAR-3): > 100 µM (inactive)
- GI50 (HCT-116): 70.8 µM (inactive)
- GI50 (CCRF-CEM): 34.2 µM (inactive)
- GI50 (HT-29): > 100 µM (inactive)
- GI50 (M14): 48.4 µM (inactive)
- GI50 (SW-620): 76.6 µM (inactive)
- GI50 (SK-MEL-2): 56.8 µM (inactive)
- GI50 (786-0): 21.9 µM (inactive)
- GI50 (NCI-H522): 83.9 µM (inactive)
- GI50 (NCI-H460): 58.6 µM (inactive)
- GI50 (DU-145): 34.4 µM (inactive)
- GI50 (A498): 16.2 µM (inactive)
- GI50 (SN12C): 54.5 µM (inactive)
- GI50 (UACC-257): 5.24 µM (inactive)
- GI50 (SK-MEL-5): 17.8 µM (inactive)
- GI50 (HCT-15): 88.3 µM
- GI50 (HL-60): 21.2 µM (inactive)
- GI50 (UACC-62): 33.7 µM (inactive)
- GI50 (SF-268): 48.2 µM (inactive)
- GI50 (MDA-MB-231): 27.3 µM (inactive)
- GI50 (COLO 205): 27.1 µM (inactive)
- GI50 (SNB-75): 39.4 µM (inactive)
- GI50 (SK-OV-3): > 100 µM (inactive)
- GI50 (MDA-N): 36.2 µM (inactive)
- GI50 (ACHN): 45.1 µM (inactive)
- GI50 (RXF 393): 24.5 µM (inactive)
- GI50 (CAKI-1): 20.5 µM (inactive)
- GI50 (OVCAR-5): > 100 µM (inactive)
- GI50 (SF-295): 19.1 µM (inactive)
- GI50 (SF-539): 48.4 µM (inactive)
- GI50 (NCI-H226): 33 µM (inactive)
- GI50 (LOX IMVI): > 100 µM (inactive)
- GI50 (SR): 30.7 µM (inactive)
- GI50 (Hs-578T): 29.3 µM (inactive)
- GI50 (BT-549): 35 µM (inactive)
- GI50 (NCI/ADR-RES): > 100 µM (inactive)
- GI50 (NCI-H23): 27.8 µM (inactive)
- GI50 (T47D): 34.9 µM (inactive)
- GI50 (UO-31): > 100 µM (inactive)
- GI50 (MCF7): > 100 µM (inactive)
- GI50 (IGROV-1): 57.9 µM (inactive)
- GI50 (HOP-92): 26.4 µM (inactive)
- GI50 (PC-3): > 100 µM (inactive)
- GI50 (OVCAR-8): > 100 µM (inactive)
- GI50 (OVCAR-4): 74.6 µM (inactive)
- GI50 (SNB-19): 32 µM (inactive)
- GI50 (A549): > 100 µM (inactive)
- GI50 (KM12): 55.3 µM (inactive)
- GI50 (TK-10): 63.4 µM (inactive)
- GI50 (RPMI-8226): 20.9 µM (inactive)
- GI50 (EKVX): 70.8 µM (inactive)
